From patent US20240043470A1, “MACROCYCLIC COMPOUNDS AS PROTEASOME INHIBITORS” (CORNELL UNIVERSITY, priority 2017, published 2024)

target: β5c of hu c-20S (Homo sapiens (Human), UniProt P20618+P28074); test: IC50 determination against β5c of human constitutive proteasome (suc-LLVY-AMC hydrolysis); type: biochemical; settings: 0.2 nM c-20S, 25 μM suc-LLVY-AMC;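 further: IC50 obtained by fitting initial reaction velocities to a dose-dependent inhibition model, with SDS present as proteasome activator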

Row | IC50 [µM] | Structure (SMILES)
1 | 1.12 | CCC(=O)N[C@H]1Cc2cccc(c2)Oc2cccc(c2)C[C@@H](C(=O)NCC2CC2)NC(=O)[C@H](CCc2ccccc2)NC1=O [Compound 1-07]
2 | 1.93 | O=C(CO)N[C@H]1Cc2cccc(c2)Oc2cccc(c2)C[C@@H](C(=O)NCc2ccccc2)NC(=O)[C@H](CCc2ccccc2)NC1=O [Compound 1-11]
3 | 3.2 | O=C(N[C@H]1Cc2cccc(c2)Oc2cccc(c2)C[C@@H](C(=O)NCc2ccccc2)NC(=O)[C@H](CCc2ccccc2)NC1=O)c1ccccn1 [Compound 1-12]
4 | 3.52 | Cn1cnc(C(=O)N[C@H]2Cc3cccc(c3)Oc3cccc(c3)C[C@@H](C(=O)NCc3ccccc3)NC(=O)[C@H](CCc3ccccc3)NC2=O)c1 [Compound 1-13]
5 | 4.01 | CCC(=O)N[C@H]1Cc2cccc(c2)Oc2cccc(c2)C[C@@H](C(=O)NCc2ccccc2)NC(=O)[C@H](CCc2ccccc2)NC1=O [Compound 1-14]
6 | 100 | O=C(N[C@H]1Cc2cccc(c2)Oc2cccc(c2)C[C@@H](C(=O)NCc2ccccc2)NC(=O)[C@H](CCc2ccccc2)NC1=O)c1ccccc1 [Compound 1-15]
7 | 6.21 | O=C(N[C@H]1Cc2cccc(c2)Oc2cccc(c2)C[C@@H](C(=O)NC2CCCC2)NC(=O)[C@H](CCc2ccccc2)NC1=O)c1ccccc1 [Compound 1-23]
8 | 1.63 | CCN(CC)[C@H]1Cc2cccc(c2)Oc2cccc(c2)C[C@@H](C(=O)NC(C)C)NC(=O)[C@H](CCc2ccccc2)NC1=O [Compound 1-25]
9 | 6.93 | CC(C)NC(=O)[C@@H]1Cc2cccc(c2)Oc2cccc(c2)C[C@H](NC(=O)c2ccccc2)C(=O)N[C@@H](CCc2ccccc2)C(=O)N1 [Compound 1-26]
10 | 4.21 | CCC(=O)N[C@H]1Cc2cccc(c2)Oc2cccc(c2)C[C@@H](C(=O)NCC(C)C)NC(=O)[C@H](CCc2ccccc2)NC1=O [Compound 1-30]
11 | 5 | CC(C)CNC(=O)[C@@H]1Cc2cccc(c2)Oc2cccc(c2)C[C@H](NC(=O)c2ccccc2)C(=O)N[C@@H](CCc2ccccc2)C(=O)N1 [Compound 1-31]
12 | 8.86 | CC(C)CNC(=O)[C@@H]1Cc2cccc(c2)Oc2cccc(c2)C[C@H](NC(=O)c2cn(C)cn2)C(=O)N[C@@H](CCc2ccccc2)C(=O)N1 [Compound 1-32]
13 | 2.25 | COCCC(=O)N[C@H]1Cc2cccc(c2)Oc2cccc(c2)C[C@@H](C(=O)NCc2cccnc2)NC(=O)[C@H](CCc2ccccc2)NC1=O [Compound 1-33]
14 | 2.85 | COCCNC(=O)[C@@H]1Cc2cccc(c2)Oc2cccc(c2)C[C@H](NC(=O)c2cccnc2)C(=O)N[C@@H](CCc2ccccc2)C(=O)N1 [Compound 1-34]
15 | 3.04 | CCN(CC)C(=O)[C@@H]1Cc2cccc(c2)Oc2cccc(c2)C[C@H](NC(=O)c2ccncc2)C(=O)N[C@@H](CCc2ccccc2)C(=O)N1 [Compound 1-36]
16 | 5.7 | O=C(N[C@H]1Cc2cccc(c2)Oc2cccc(c2)C[C@@H](C(=O)NCCC(F)(F)F)NC(=O)[C@H](CCc2ccccc2)NC1=O)c1ccccc1 [Compound 1-41]
17 | 10.2 | CCC(=O)N[C@H]1Cc2cccc(c2)Oc2cccc(c2)C[C@@H](C(=O)NCc2ccccn2)NC(=O)[C@H](CCc2ccccc2)NC1=O [Compound 1-48]

Further lines, the compound ahead of its results:

Row | Structure (SMILES) | IC50 [µM]
18 | Cn1cc(CNC(=O)[C@@H]2Cc3cccc(c3)Oc3cccc(c3)C[C@H](N3CCCCC3)C(=O)N[C@@H](CCc3ccccc3)C(=O)N2)cn1 [Compound 1-01, (5S,8S,11S)—N-((1-Methyl-1H-pyrazol-4-yl)methyl)-7,10-dioxo-8-phenethyl-11-(piperidin-1-yl)-2-oxa-6,9-diaza-1,3(1,3)-dibenzenacyclododecaphane-5-carboxamide] | 0.402
19 | CCN(CC)[C@H]1Cc2cccc(c2)Oc2cccc(c2)C[C@@H](C(=O)NCc2cnn(C)c2)NC(=O)[C@H](CCc2ccccc2)NC1=O [Compound 1-02] | 0.55
20 | CN1CCC(C(=O)N[C@H]2Cc3cccc(c3)Oc3cccc(c3)C[C@@H](C(=O)NCc3cnn(C)c3)NC(=O)[C@H](CCc3ccccc3)NC2=O)CC1 [Compound 1-03, (5S,8S,11S)—N-((1-Methyl-1H-pyrazol-4-yl)methyl)-11-(1-methylpiperidine-4-carboxamido)-7,10-dioxo-8-phenethyl-2-oxa-6,9-diaza-1,3(1,3)-dibenzenacyclododecaphane-5-carboxamide] | 1
21 | COC(=O)N[C@H]1Cc2cccc(c2)Oc2cccc(c2)C[C@@H](C(=O)NCC2CC2)NC(=O)[C@H](CCc2ccccc2)NC1=O [Compound 1-06] | 0.542
22 | CS(=O)(=O)N[C@H]1Cc2cccc(c2)Oc2cccc(c2)C[C@@H](C(=O)NCC2CC2)NC(=O)[C@H](CCc2ccccc2)NC1=O [Compound 1-08] | 1.78
23 | CCCN(CCC)[C@H]1Cc2cccc(c2)Oc2cccc(c2)C[C@@H](C(=O)NCc2ccccc2)NC(=O)[C@H](CCc2ccccc2)NC1=O [Compound 1-09] | 0.503
24 | CC1CCCN1[C@H]1Cc2cccc(c2)Oc2cccc(c2)C[C@@H](C(=O)NCc2ccccc2)NC(=O)[C@H](CCc2ccccc2)NC1=O (stereo partly shown) [Compound 1-10] | 1.3
25 | O=C(NC1CCCC1)[C@@H]1Cc2cccc(c2)Oc2cccc(c2)C[C@H](N2CCCC2)C(=O)N[C@@H](CCc2ccccc2)C(=O)N1 [Compound 1-18] | 0.572
26 | CCC(=O)N[C@H]1Cc2cccc(c2)Oc2cccc(c2)C[C@@H](C(=O)NC2CCCC2)NC(=O)[C@H](CCc2ccccc2)NC1=O [Compound 1-19] | 2.8
27 | O=C(CO)N[C@H]1Cc2cccc(c2)Oc2cccc(c2)C[C@@H](C(=O)NC2CCCC2)NC(=O)[C@H](CCc2ccccc2)NC1=O [Compound 1-20] | 3.25
28 | CCCN(CCC)[C@H]1Cc2cccc(c2)Oc2cccc(c2)C[C@@H](C(=O)NC2CCCC2)NC(=O)[C@H](CCc2ccccc2)NC1=O [Compound 1-21] | 3.4
29 | CCN(CC)[C@H]1Cc2cccc(c2)Oc2cccc(c2)C[C@@H](C(=O)NC2CCCC2)NC(=O)[C@H](CCc2ccccc2)NC1=O [Compound 1-22] | 41.6
30 | CCN[C@H]1Cc2cccc(c2)Oc2cccc(c2)C[C@@H](C(=O)NC2CCCC2)NC(=O)[C@H](CCc2ccccc2)NC1=O [Compound 1-24, (5S,8S,11S)—N-Cyclopentyl-11-(methylamino)-7,10-dioxo-8-phenethyl-2-oxa-6,9-diaza-1,3(1,3)-dibenzenacyclododecaphane-5-carboxamide] | 100
31 | CCNC(=O)[C@@H]1Cc2cccc(c2)Oc2cccc(c2)C[C@H](N(CC)CC)C(=O)N[C@@H](CCc2ccccc2)C(=O)N1 [Compound 1-27] | 1.14
32 | CCNC(=O)[C@@H]1Cc2cccc(c2)Oc2cccc(c2)C[C@H](N2CCCCC2)C(=O)N[C@@H](CCc2ccccc2)C(=O)N1 [Compound 1-28] | 2.47
33 | CCN(CC)[C@H]1Cc2cccc(c2)Oc2cccc(c2)C[C@@H](C(=O)NCC(C)C)NC(=O)[C@H](CCc2ccccc2)NC1=O [Compound 1-29] | 2.2

Row | Structure (SMILES) | IC50 [µM]
34 | CS(=O)(=O)N[C@H]1Cc2cccc(c2)Oc2cccc(c2)C[C@@H](C(N)=O)NC(=O)[C@H](CCc2ccccc2)NC1=O [Compound 1-35] | 3
35 | Cc1nn(C)cc1CNC(=O)[C@@H]1Cc2cccc(c2)Oc2cccc(c2)C[C@H](NS(C)(=O)=O)C(=O)N[C@@H](CCc2ccccc2)C(=O)N1 [Compound 1-38] | 4.29
36 | CN(C)CCC(=O)N[C@H]1Cc2cccc(c2)Oc2cccc(c2)C[C@@H](C(=O)NCC2CCCCN2C)NC(=O)[C@H](CCc2ccccc2)NC1=O (stereo partly shown) [Compound 1-39] | 4.57
37 | CCC(=O)N[C@H]1Cc2cccc(c2)Oc2cccc(c2)C[C@@H](c2nc3ccccc3o2)NC(=O)[C@H](CCc2ccccc2)NC1=O [Compound 1-42] | 5.93
38 | O=C(N[C@H]1Cc2cccc(c2)Oc2cccc(c2)C[C@@H](C(=O)N2CCCC2)NC(=O)[C@H](CCc2ccccc2)NC1=O)C1COC1 [Compound 1-44] | 7.52
39 | COCCC(=O)N[C@H]1Cc2cccc(c2)Oc2cccc(c2)C[C@@H](C(=O)NCCC(F)(F)F)NC(=O)[C@H](CCc2ccccc2)NC1=O [Compound 1-45] | 7.7
40 | CS(=O)(=O)CCNC(=O)[C@@H]1Cc2cccc(c2)Oc2cccc(c2)C[C@H](NC(=O)CO)C(=O)N[C@@H](CCc2ccccc2)C(=O)N1 [Compound 1-46] | 9.5
41 | COCC(=O)N[C@H]1Cc2cccc(c2)Oc2cccc(c2)C[C@@H](C(=O)NCC2CCCO2)NC(=O)[C@H](CCc2ccccc2)NC1=O (stereo partly shown) [Compound 1-47] | 9.7
42 | O=C(N[C@H]1Cc2cccc(c2)Oc2cccc(c2)C[C@@H](C(=O)NCC2CCOCC2)NC(=O)[C@H](CCc2ccccc2)NC1=O)c1cccnn1 [Compound 1-49] | 11.9
43 | O=C1CCc2cccc(c2)Oc2cccc(c2)C[C@@H](C(=O)NCc2ccccc2F)NC(=O)[C@H](CCN2CCOCC2)N1 [Compound 1-91] | 0.47
44 | O=C(NCC1CC1)[C@@H]1CCCCOc2cccc(c2)C[C@H](N2CCCC2=O)C(=O)N[C@@H](CCN2CCOCC2)C(=O)N1 [Compound 3-17, (7S,10S,13S)—N-(Cyclopropylmethyl)-10-(2-morpholinoethyl)-9,12-dioxo-13-(2-oxopyrrolidin-1-yl)-2-oxa-8,11-diaza-1(1,3)-benzenacyclotetradecaphane-7-carboxamide] | 17.9
45 | O=C(NCC(F)(F)F)[C@@H]1CCCCOc2cccc(c2)C[C@H](N2CCCS2(=O)=O)C(=O)N[C@@H](CCN2CCOCC2)C(=O)N1 [Compound 3-19] | 45
46 | O=C1CCc2cccc(c2)OCCCC[C@@H](C(=O)NC2CCCC2)NC(=O)[C@H](CCN2CCOCC2)N1 [Compound 3-25, (6S,9S)—N-Cyclopentyl-9-(2-morpholinoethyl)-8,11-dioxo-2-oxa-7,10-diaza-1(1,3)-benzenacyclotridecaphane-6-carboxamide] | 24.1
47 | CC1(CNC(=O)[C@@H]2CCCCOc3cccc(c3)CCC(=O)N[C@@H](CCN3CCOCC3)C(=O)N2)CC1 [Compound 3-27] | 34.6
48 | O=C(NC[C@H]1CCCO1)[C@@H]1CCCCOc2cccc(c2)C[C@H](N2CCCC2=O)C(=O)N[C@@H](CCc2ccc(F)cc2)C(=O)N1 [Compound 3-30] | 85.3
49 | CN1C(=O)[C@H](CCc2ccccc2)NC(=O)[C@@H](N2CCCC2=O)Cc2cccc(c2)OCCCC[C@H]1C(=O)NCC(F)(F)F [Compound 3-33] | 25.8
